Laboratory results published in PMC5120204, “Identification of an orally active small-molecule PTHR1 agonist for the treatment of hypoparathyroidism” (Nature Communications, 2016).
Read-outs that look alike come from different tables or passages of the source.

Assays:
rat PTHR2 = molecular target: T1, rat PTHR2 (Rattus norvegicus, UniProt P70555); experiment: cAMP production assay in COS-7 cells expressing rat PTHR2; format: cell-based
T1 construct: expressed in transfected cells; host or cells: COS-7 (transient)
Description: COS-7 cells (ATCC) were seeded into a 96-well flat-bottomed plate (1.4 × 10^4 cells per 100 μl per well) and incubated overnight. The next day, the COS-7 cells were transfected by adding 10 μl of a mixture of hPTHR1, hPTHR2 or mutant hPTHR1 plasmid, rat PTHR1 or rat PTHR2 plasmid, or empty vector (0.1 μg per well), FuGENE HD Transfection Reagent (0.4 μl per well, Promega), and Opti-MEM I Reduced Serum Medium (10 μl per well, Life Technologies) to each well. […] The plate was placed in a 37 °C constant-temperature water bath for 20 min to allow the reaction to proceed. After incubation, the liquid in the wells was discarded, the wells were washed with the assay medium (100 μl per well), and the plate was frozen on dry ice. Next, 40 μl of 50 mmol l^−1 HCl was added to each well, and the plate was stored in a freezer set at ≤−20 °C. The cAMP concentrations were measured by using a cAMP EIA kit (GE Healthcare). EC50 values were determined from three independent experiments in duplicate by a non-linear regression Emax model (JMP ver.9.0.2, SAS Institute). The geometric mean of the EC50 values obtained in three experiments in duplicate was calculated using Microsoft Office Excel 2007. […]

UMR-106 cells = experiment: Gene expression assay in UMR-106 cells; format: cell-based, rat
Description: UMR-106 cells (ATCC) were incubated with DMEM with 0.2% BSA for 4 h and were then treated with hPTH(1–34) or PCO371 for 1 or 6 h. At 1 or 6 h after adding test compounds, total RNA was isolated by using an RNeasy Plus Kit (Qiagen). cDNA was transcribed from the isolated total RNA by using TaqMan Reverse Transcription Reagents (Thermo Fisher Scientific). mRNA levels were quantified by a real-time PCR system (Thermo Fisher Scientific). The relative quantity of transcripts was calculated by using the comparative threshold cycle (Ct) method and normalized to 18S ribosomal RNA as an internal control. The following cDNA-specific primers and probes were used: Fos (encoded by Fos, Rn02396759_m1), osteocalcin (encoded by Bglap, Rn00566386_g1), receptor activator of nuclear factor-κB ligand (RANKL, encoded by Tnfsf11, Rn00589289_m1), osteoprotegerin (osteoprotegerin, encoded by Tnfrsf11b, Rn00563499_m1) and sclerostin (encoded by Sost, Rn00577971_m1).

[1] = Pharmacokinetics in TPTX rats; format: in vivo, rat; conditions: female, Crl:CD(SD), rat, plasma, po
OVX rats = experiment: Repeated administration study in OVX rats; format: in vivo, rat
Description: OVX was carried out in 32-week-old female Crl:CD (SD) rats (Charles River Laboratories). Twelve weeks after surgery, lumbar vertebral BMD (L3–L5) was measured in vivo by dual-energy X-ray absorptiometry (DXA) using a DCS-600EX-IIIR bone densitometer (Hitachi Aloka Medical), and the rats were divided into five groups, each with a similar mean value of BMD and body weight. Sample sizes were determined based on previous experiments with hPTHs and a published study with ibandronate and eldecalcitriol in our laboratories[42] (n=7–10). Then, OVX rats were treated once daily intravenously (vehicle or PCO371 at 3 or 10 mg kg^−1) or orally (vehicle or PCO371 at 30 mg kg^−1) or subcutaneously [vehicle or hPTH(1–34) at 0.9 nmol kg^−1] for 12 weeks. Ten to twelve OVX rats were assigned to each dose group. Nine rats were assigned to the sham-operated control group and were treated with vehicle for PCO371. Ten per cent DMSO (Wako Pure Chemical Industries)/10% Kolliphor EL (Sigma-Aldrich) in 10% hydroxypropyl-β-cyclodextrin (HPCD; Nihon Shokuhin Kako)/0.752% glycine (Wako Pure Chemical Industries) buffer was used as vehicle for PCO371, and phosphate-citrate buffer (pH 6.0) was used as vehicle for hPTH(1–34). To label bone-forming surfaces, tetracycline ([…], Nippon Zenyaku Kogyo) was subcutaneously injected on Day 78 and calcein (8 mg kg^−1, Dōjindo Laboratories) was subcutaneously injected on day 83. Under isoflurane anaesthesia, jugular vein blood was collected immediately before and at 1, 2, 6, 10 and 24 h after administration on day 82 to measure plasma concentration of PCO371 or on day 84 to measure serum Ca levels (o-CPC method, Wako Pure Chemical Industries). Urine was collected for 24 h from metabolic cages on days 84–85 to measure urinary collagen type 1 cross-linked C-telopeptide (CTX) by using the RatLaps ELISA System (Immunodiagnostic Systems). Under isoflurane anaesthesia, blood was collected on day 85 from the abdominal aorta to measure serum osteocalcin level by using the Rat Osteocalcin ELISA System (GE Healthcare). The lumbar spine and bilateral femurs were excised after 12 weeks of treatment. The first lumbar vertebra (L1), 3rd to 5th lumbar vertebrae (L3–L5), the right femur, and the right tibia were preserved in 70% ethanol to measure bone histomorphometry and BMD (DCS-600EX; Hitachi Aloka Medical). Measurement of bone histomorphometry was performed by the Ito Bone Histomorphometry Institute (Niigata, Japan). The second lumbar vertebra (L2) was wrapped in saline-soaked gauze and stored at −80 °C until measurement. Ultimate compressive strength (N) of the L2 vertebra was measured by using a mechanical testing machine (TK-252C; Muromachi Kikai).

[2] = daily oral 30 mg kg^−1, 12 weeks

T1 sequence (P70555 25-546): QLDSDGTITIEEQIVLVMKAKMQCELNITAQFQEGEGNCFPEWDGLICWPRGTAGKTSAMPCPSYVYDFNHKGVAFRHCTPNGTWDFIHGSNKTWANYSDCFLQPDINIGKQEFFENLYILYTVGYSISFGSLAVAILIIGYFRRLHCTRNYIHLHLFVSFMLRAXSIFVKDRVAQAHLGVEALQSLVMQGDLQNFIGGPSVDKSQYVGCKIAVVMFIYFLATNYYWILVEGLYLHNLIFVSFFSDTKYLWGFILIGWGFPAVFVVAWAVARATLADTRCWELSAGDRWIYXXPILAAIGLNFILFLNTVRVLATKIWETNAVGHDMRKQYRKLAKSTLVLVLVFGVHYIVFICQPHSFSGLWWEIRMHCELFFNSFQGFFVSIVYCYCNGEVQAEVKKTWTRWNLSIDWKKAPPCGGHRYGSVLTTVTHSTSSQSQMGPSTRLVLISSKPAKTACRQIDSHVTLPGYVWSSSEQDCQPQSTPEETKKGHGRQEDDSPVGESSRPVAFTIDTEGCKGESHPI

## Cc1cc(N2C(=O)NC(=O)C2(C)C)cc(C)c1CCS(=O)(=O)N1CCC2(CC1)N=C(c1ccc(OC(F)(F)F)cc1)NC2=O [PCO371, 1-{3,5-dimethyl-4-[2-({4-oxo-2-[4-(trifluoromethoxy)phenyl]-1,3,8-triazaspiro[4.5]dec-1-en-8-yl}sulfonyl)ethyl]phenyl}-5,5-dimethylimidazolidine-2,4-dione]
Rat PTHR2
  cAMP production: did not stimulate cAMP production
UMR-106 cells; 1 h (Fos) or 6 h
  expression of mRNAs for Fos, osteocalcin and RANKL: dose-dependently increased
UMR-106 cells; 6 h
  expression of mRNAs for osteoprotegerin and sclerostin: dose-dependently decreased
[1]; p.o. 2 mg kg-1
  half-life: 6.9 ± 2.3 h
[1]; p.o. 2 mg kg-1, read-out: AUC
  AUC: 464 ± 125 ng·h/mL
[1]; p.o. 2 mg kg-1, read-out: Cmax
  Cmax: 95.6 ± 84.4 ng/mL
[1]; p.o. 2 mg kg-1, read-out: Tmax
  Tmax: 1.4 ± 1 h
[1]; p.o. 6 mg kg-1
  half-life: 4.9 ± 0.6 h
[1]; p.o. 6 mg kg-1, read-out: AUC
  AUC: 1590 ng·h/mL
[1]; p.o. 6 mg kg-1, read-out: Cmax
  Cmax: 216 ± 103 ng/mL
[1]; p.o. 6 mg kg-1, read-out: Tmax
  Tmax: 1.3 ± 0.6 h
[1]; p.o. 18 mg kg-1
  half-life: 4.7 ± 0.7 h
[1]; p.o. 18 mg kg-1, read-out: AUC
  AUC: 9210 ng·h/mL
[1]; p.o. 18 mg kg-1, read-out: Cmax
  Cmax: 1630 ng/mL
[1]; p.o. 18 mg kg-1, read-out: Tmax
  Tmax: 3.7 ± 3.8 h
OVX rats; daily intravenous 3 mg kg^−1, 12 weeks
  BMD or bone strength in the lumbar spine: did not affect
OVX rats; [2]
  BMD in the proximal femur: partially increased
  BMD in total femur: not in total femur
  BMD or bone strength in the lumbar spine: did not affect
OVX rats; day 84, all treated rats
  serum Ca: within the normal range
OVX rats; intravenous 10 mg kg^−1, 12 weeks
  serum osteocalcin and urinary CTX/creatinine: significant increase
OVX rats; once-daily intravenous 10 mg kg^−1, 12 weeks, vs vehicle
  BMD and bone strength in the lumbar vertebrae: significant increase
OVX rats; oral 30 mg kg^−1, 12 weeks
  serum osteocalcin and urinary CTX/creatinine: significant increase
